Values after ≈ are worked out from the molar mass of the structure shown. Read-outs that look alike come from different tables or passages of the source.
Legend:
Type in all cases: cell-based
[1] = test system: MGC-803 gastric cancer cell line; assay: CCK-8 proliferation inhibition; conditions: Homo sapiens, MGC-803, 72 h, concentration of 30 μM
Excerpt: (§1) 2. The present invention adopts the CCK-8 method to determine the proliferation inhibition effect of the spiro three-membered ring, spiro five-membered ring peptide deformylase inhibitor as described in Examples 1-80 against colorectal cancer cells, lung cancer cells, gastric cancer cells, liver cancer cells, and the like. […] The compound having the best activity synthesized in Example 64 was further tested for its inhibitory activity against other tumor cells including T cell leukemia, acute myeloid leukemia, cervical cancer, breast cancer, prostate cancer and osteosarcoma, and the like (see Table 7).
(§2) (1) HCT-116 colorectal cancer cell line, A549 lung cancer cell line, MGC-803 gastric cancer cell line, BEL-7402 liver cancer cell line, Jurkat T cell leukemia cell line, HL60 acute myeloid leukemia cell line, Hela cervical cancer cell line, MCF-7 breast cancer cell line, PC3 prostate cancer cell line and SAOS-2 osteosarcoma cell line were made into single cell suspension, 180 μL of which was inoculated into 96-well culture plate, which was cultured overnight in CO2 incubator (37° C., 5% CO2, 95% air).
(§3) (2) Each of the spiro three-membered ring, spiro five membered ring peptide deformylase inhibitors was dissolved in DMSO, and was further formulated into drug solution with required different final concentration using corresponding cell culture medium. The drug solutions were added to the above cells respectively (20 μL/well), with the control group added with 1‰ DMSO, and cultured in a CO2 incubator for 72 hours.
(§4) (3) After incubation for 72 hours, the culture solution was decanted, and 100 μL of 1:10 diluted CCK-8 solution was added.
(§5) Wherein, in step (1), the concentration of the single cell suspension was 2000 cells/well.
(§6) Wherein, in step (2), HCT-116 cells were cultured in McCoy's 5A medium (containing 10% newborn bovine serum, 1% double antibody); A549 and PC3 cells were cultured in F12 medium (containing 10% newborn bovine serum, 1% double antibody); MGC-803, BEL-7402, SAOS-2, Jurkat and HL60 cells were cultured in 1640 medium (containing 10% newborn bovine serum, 1% double antibody); and MCF-7 and Hela cells were cultured in DMEM high glucose medium (containing 10% newborn bovine serum, 1% double antibody).

[2] = test system: A549 lung cancer cell line; assay: CCK-8 proliferation inhibition; conditions: Homo sapiens, A549, 72 h, concentration of 30 μM
Excerpt: as §1, §2, §3, §4, §5, §6

[3] = test system: BEL-7402 liver cancer cell line; assay: CCK-8 proliferation inhibition; conditions: concentration of 30 μM
Excerpt: as §1, §2, §3, §4, §5, §6

[4] = test system: HCT-116 colorectal cancer cell line; assay: CCK-8 proliferation inhibition; conditions: Homo sapiens, HCT-116, 72 h, concentration of 30 μM, 72 hours, CCK-8
In short: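 Cells were plated overnight at 2000 cells/well, then compound in culture medium was added at a range of final concentrations. After 72 hours in a CO2 incubator, medium was replaced with 1:10 CCK-8 solution for the read-out.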

[5] = test system: methicillin-sensitive Staphylococcus aureus (MSSA); assay: MIC, two-fold agar dilution (CLSI), clinical isolates
In short: (§7)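 Following the American Clinical and Laboratory Standards Institute procedure, agar two-fold dilution served to determine minimum inhibitory concentrations.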

[6] = test system: Escherichia coli (including ESBLs, non-ESBLs); assay: as above
In short: as §7

[7] = test system: methicillin-sensitive Staphylococcus epidermidis (MSSE); assay: as above
In short: as §7

[8] = test system: methicillin-resistant Staphylococcus epidermidis (MRSE); assay: as above
In short: as §7

[9] = test system: Enterococcus faecium (EFM); assay: as above
In short: as §7

[10] = test system: Moraxella catarrhalis (BCA); assay: as above
In short: as §7

[11] = test system: Enterococcus faecalis (EFA); assay: as above
In short: as §7

[12] = test system: methicillin-resistant Staphylococcus aureus (MRSA); assay: as above
In short: as §7

[13] = test system: Streptococcus pneoumoniae (SPN); assay: as above
In short: as §7

[14] = read-out: HCT116 inhibition rate/%

CCCC[C@H](CC(=O)NO)C(=O)N1CC2(CCCC2)C[C@H]1C(=O)Nc1cnccn1 [Example 77]
inhibition at 30 µM [1]: 19%
inhibition at 30 µM [2]: 16%
inhibition at 30 µM ([3]; Homo sapiens, Bel-7402, 72 h): > 50%
Inhibition of proliferation, Liver cancer BEL-7402 ([3]; 72 hours, 30 µM): 49%
inhibition at 30 µM ([4]; Table 5, read-out: Inhibition of proliferation, Colorectal cancer HCT116): ≥ 30%
inhibition at 30 µM [4, 14]: 30%
Anti-bacterial activity (MIC), strain MSSA 15-3 ([5]; clinical isolate MSSA 15-3): 0.5 µg/mL
Anti-bacterial activity (MIC), strain MSSA 15-4 ([5]; clinical isolate MSSA 15-4): 0.125 µg/mL
Anti-bacterial activity (MIC), strain MSSA 15-5 ([5]; clinical isolate MSSA 15-5): 0.125 µg/mL
Anti-bacterial activity (MIC), strain MSSA 15-6 ([5]; clinical isolate MSSA 15-6): > 32 µg/mL
Anti-bacterial activity (MIC), strain ECO+ 15-1 ([6]; clinical isolate ECO+ 15-1): 0.125 µg/mL
Anti-bacterial activity (MIC), strain ECO+ 15-2 ([6]; clinical isolate ECO+ 15-2): > 32 µg/mL
Anti-bacterial activity (MIC), strain ECO+ 15-3 ([6]; clinical isolate ECO+ 15-3): > 32 µg/mL
Anti-bacterial activity (MIC), strain ECO+ 15-4 ([6]; clinical isolate ECO+ 15-4): > 32 µg/mL
Anti-bacterial activity (MIC), strain ECO− 15-1 ([6]; clinical isolate ECO− 15-1): > 32 µg/mL
Anti-bacterial activity (MIC), strain ECO− 15-2 ([6]; clinical isolate ECO− 15-2): > 32 µg/mL
Anti-bacterial activity (MIC), strain ECO− 15-3 ([6]; clinical isolate ECO− 15-3): > 32 µg/mL
Anti-bacterial activity (MIC), strain ECO− 15-4 ([6]; clinical isolate ECO− 15-4): > 32 µg/mL
Anti-bacterial activity (MIC), strain MSSE 15-3 ([7]; clinical isolate MSSE 15-3): 0.5 µg/mL
Anti-bacterial activity (MIC), strain MSSE 15-4 ([7]; clinical isolate MSSE 15-4): 2 µg/mL
Anti-bacterial activity (MIC), strain MSSE 15-5 ([7]; clinical isolate MSSE 15-5): 2 µg/mL
Anti-bacterial activity (MIC), strain MSSE 15-6 ([7]; clinical isolate MSSE 15-6): 0.125 µg/mL
Anti-bacterial activity (MIC), strain MRSE 15-1 ([8]; clinical isolate MRSE 15-1): 0.5 µg/mL
Anti-bacterial activity (MIC), strain MRSE 15-2 ([8]; clinical isolate MRSE 15-2): 2 µg/mL
Anti-bacterial activity (MIC), strain MRSE 15-3 ([8]; clinical isolate MRSE 15-3): 2 µg/mL
Anti-bacterial activity (MIC), strain MRSE 15-7 ([8]; clinical isolate MRSE 15-7): 2 µg/mL
Anti-bacterial activity (MIC) ([9]; strain EFM 15-1): 32 µg/mL
Anti-bacterial activity (MIC) ([9]; strain EFM 15-2): 32 µg/mL
Anti-bacterial activity (MIC) ([9]; strain EFM 15-3): 32 µg/mL
Anti-bacterial activity (MIC) ([9]; strain EFM 15-4): 2 µg/mL
Anti-bacterial activity (MIC) ([9]; strain EFM 15-5): 2 µg/mL
Anti-bacterial activity (MIC) ([9]; strain EFM 15-6): 2 µg/mL
Anti-bacterial activity (MIC) ([10]; strain BCA 14-1): 1 µg/mL
Anti-bacterial activity (MIC) ([10]; strain BCA 14-4): 2 µg/mL
Anti-bacterial activity (MIC) ([10]; strain BCA 14-5): 0.125 µg/mL
Anti-bacterial activity (MIC) ([10]; strain BCA 14-6): 0.5 µg/mL
Anti-bacterial activity (MIC) ([10]; strain BCA 14-7): 0.5 µg/mL
Anti-bacterial activity (MIC) ([10]; strain BCA 14-8): 0.5 µg/mL
Anti-bacterial activity (MIC) ([10]; strain BCA 14-10): 0.25 µg/mL
Anti-bacterial activity (MIC) ([11]; strain EFA 15-1): 32 µg/mL
Anti-bacterial activity (MIC) ([11]; strain EFA 15-2): 32 µg/mL
Anti-bacterial activity (MIC) ([11]; strain EFA 15-3): 32 µg/mL
Anti-bacterial activity (MIC) ([11]; strain EFA 15-4): 32 µg/mL
Anti-bacterial activity (MIC) ([11]; strain EFA 15-5): 32 µg/mL
Anti-bacterial activity (MIC) ([11]; strain EFA 15-6): 32 µg/mL
Anti-bacterial activity (MIC) ([11]; strain EFA 15-9): 16 µg/mL
Anti-bacterial activity (MIC), strain MRSA 15-1 ([12]; clinical isolate MRSA 15-1): 0.25 µg/mL
Anti-bacterial activity (MIC), strain MRSA 15-2 ([12]; clinical isolate MRSA 15-2): 0.5 µg/mL
Anti-bacterial activity (MIC), strain MRSA 15-3 ([12]; clinical isolate MRSA 15-3): 0.25 µg/mL
Anti-bacterial activity (MIC), strain MRSA 15-4 ([12]; clinical isolate MRSA 15-4): 0.5 µg/mL

CCCC[C@H](CN(O)C=O)C(=O)N1CC2(CC2)C[C@H]1C(=O)Nc1cc(C)on1 [Example 21, (S)-5-((R)-2-((N-hydroxyformamido)methyl)hexanoyl)-N-(5-methylisoxazol-3yl)-5-spiro[2.4]heptane-6-carboxamide]
inhibition at 30 µM [4, 14]: 8%
MIC (anti-bacterial activity) ([5]; strain MSSA 15-3): 0.5 µg/mL (≈ 1.27 µM)
MIC (anti-bacterial activity) ([5]; strain MSSA 15-4): 0.25 µg/mL (≈ 0.637 µM)
MIC (anti-bacterial activity) ([5]; strain MSSA 15-5): 0.25 µg/mL (≈ 0.637 µM)
MIC (anti-bacterial activity) ([5]; strain MSSA 15-6): 0.5 µg/mL (≈ 1.27 µM)
MIC (anti-bacterial activity) ([6]; strain ECO+ 15-1): 32 µg/mL (≈ 81.5 µM)
MIC (anti-bacterial activity) ([6]; strain ECO+ 15-2): 32 µg/mL (≈ 81.5 µM)
MIC (anti-bacterial activity) ([6]; strain ECO+ 15-3): 64 µg/mL (≈ 163 µM)
MIC (anti-bacterial activity) ([6]; strain ECO+ 15-4): 64 µg/mL (≈ 163 µM)
MIC (anti-bacterial activity) ([6]; strain ECO− 15-1): 64 µg/mL (≈ 163 µM)
MIC (anti-bacterial activity) ([6]; strain ECO− 15-2): 64 µg/mL (≈ 163 µM)
MIC (anti-bacterial activity) ([6]; strain ECO− 15-3): 64 µg/mL (≈ 163 µM)
MIC (anti-bacterial activity) ([6]; strain ECO− 15-4): 64 µg/mL (≈ 163 µM)
MIC (anti-bacterial activity) ([7]; strain MSSE 15-3): 0.5 µg/mL (≈ 1.27 µM)
MIC (anti-bacterial activity) ([7]; strain MSSE 15-4): 0.25 µg/mL (≈ 0.637 µM)
MIC (anti-bacterial activity) ([7]; strain MSSE 15-5): 0.03 µg/mL (≈ 0.0764 µM)
MIC (anti-bacterial activity) ([7]; strain MSSE 15-6): 0.03 µg/mL (≈ 0.0764 µM)
MIC (anti-bacterial activity) ([8]; strain MRSE 15-1): 0.25 µg/mL (≈ 0.637 µM)
MIC (anti-bacterial activity) ([8]; strain MRSE 15-2): 0.25 µg/mL (≈ 0.637 µM)
MIC (anti-bacterial activity) ([8]; strain MRSE 15-3): 0.25 µg/mL (≈ 0.637 µM)
MIC (anti-bacterial activity) ([8]; strain MRSE 15-7): 0.25 µg/mL (≈ 0.637 µM)
MIC (anti-bacterial activity) ([9]; strain EFM 15-1): 0.5 µg/mL (≈ 1.27 µM)
MIC (anti-bacterial activity) ([9]; strain EFM 15-2): 1 µg/mL (≈ 2.55 µM)
MIC (anti-bacterial activity) ([9]; strain EFM 15-3): 0.5 µg/mL (≈ 1.27 µM)
MIC (anti-bacterial activity) ([9]; strain EFM 15-4): 1 µg/mL (≈ 2.55 µM)
MIC (anti-bacterial activity) ([9]; strain EFM 15-5): 0.5 µg/mL (≈ 1.27 µM)
MIC (anti-bacterial activity) ([9]; strain EFM 15-6): 2 µg/mL (≈ 5.1 µM)
MIC (anti-bacterial activity) ([10]; strain BCA 14-1): 0.5 µg/mL (≈ 1.27 µM)
MIC (anti-bacterial activity) ([10]; strain BCA 14-4): 0.5 µg/mL (≈ 1.27 µM)
MIC (anti-bacterial activity) ([10]; strain BCA 14-5): 0.5 µg/mL (≈ 1.27 µM)
MIC (anti-bacterial activity) ([10]; strain BCA 14-6): 0.5 µg/mL (≈ 1.27 µM)
MIC (anti-bacterial activity) ([10]; strain BCA 14-7): 0.5 µg/mL (≈ 1.27 µM)
MIC (anti-bacterial activity) ([10]; strain BCA 14-8): 0.5 µg/mL (≈ 1.27 µM)
MIC (anti-bacterial activity) ([10]; strain BCA 14-10): 0.5 µg/mL (≈ 1.27 µM)
MIC (anti-bacterial activity) ([11]; strain EFA 15-1): 16 µg/mL (≈ 40.8 µM)
MIC (anti-bacterial activity) ([11]; strain EFA 15-2): 16 µg/mL (≈ 40.8 µM)
MIC (anti-bacterial activity) ([11]; strain EFA 15-3): 1 µg/mL (≈ 2.55 µM)
MIC (anti-bacterial activity) ([11]; strain EFA 15-4): 16 µg/mL (≈ 40.8 µM)
MIC (anti-bacterial activity) ([11]; strain EFA 15-5): 16 µg/mL (≈ 40.8 µM)
MIC (anti-bacterial activity) ([11]; strain EFA 15-6): 4 µg/mL (≈ 10.2 µM)
MIC (anti-bacterial activity) ([11]; strain EFA 15-9): 4 µg/mL (≈ 10.2 µM)
MIC (anti-bacterial activity) ([12]; strain MRSA 15-1): 0.25 µg/mL (≈ 0.637 µM)
MIC (anti-bacterial activity) ([12]; strain MRSA 15-2): 0.5 µg/mL (≈ 1.27 µM)
MIC (anti-bacterial activity) ([12]; strain MRSA 15-3): 0.5 µg/mL (≈ 1.27 µM)
MIC (anti-bacterial activity) ([12]; strain MRSA 15-4): 0.5 µg/mL (≈ 1.27 µM)
MIC (anti-bacterial activity) ([13]; strain SPN 16-2): 4 µg/mL (≈ 10.2 µM)
MIC (anti-bacterial activity) ([13]; strain SPN 16-4): 0.5 µg/mL (≈ 1.27 µM)
